In patent publication US11452718B2 (AVALYN PHARMA INC., priority 2012, dated 2022):
Values joined by “and” are separate entries in the source; they are usually repeats but may differ in a detail not shown here. Identical values can stand only once. “Also recorded” adds a separate entry of the source. Like-named read-outs stand apart in the source and are kept apart here. Marks after values point to notes of the source that are not given here.

Legend:
[1] = Buffer and pH effects: pirfenidone solubility in citrate and phosphate buffers; assay type: physicochemical; conditions: Citrate buffer 5 mM, pH 6; ambient temperature overnight
Protocol: The sample was agitated at ambient temperature overnight. The sample was visually inspected, appearance recorded, centrifuged to sediment any un-dissolved material, and the supernatant withdrawn via syringe through a 0.22 μm PVDF filter. […] The remaining filtered sample was split into three equal volumes in glass vials and placed at 25° C./60RH, 40° C./75RH and refrigeration. Samples were wrapped in aluminum foil to reduce light exposure. After the first night of incubation, samples were briefly visually inspected for any signs of discoloration or precipitate formation.

[2] = Osmolality determination and nebulization for taste testing, throat irritation and cough response of selected formulations; conditions: for Cough Response? / Throat Irritation?: nebulized
Description: Selected formulations were subjected to osmolality determination and nebulization for taste testing and throat irritation and or cough response.

[3] = 85% saturation pirfenidone formulations exposed to several temperatures (re-crystallization); assay type: physicochemical; conditions: overnight
Description: However, in all cases pirfenidone eventually re-crystallized. This re-crystallization was not inhibited by pre-filtration of the sample.

[4] = Pharmacokinetics and lung-tissue distribution after oral gavage or intratracheal aerosol; assay type: in vivo, Sprague-Dawley rats; conditions: for Lung AUC: for time >1 μg/g
Protocol: Solutions were vortexed until all crystals dissolved. […] Plasma samples were taken at pre-dose, 0.08, 0.16, 0.25, 0.5, 0.75, 1.0, 1.5, 2, 4, and 6 hours post dosing. For lung tissue samples, eight additional rats were also dosed 70 mg/kg by the oral route. Lungs were taken at pre-dose 0.08, 0.5, 2, and 4 hours post dosing. Materials were extracted and pirfenidone quantitated as μg/mL plasma and μg/gram lung tissue. […]

[5] = Pharmacokinetics and tissue distribution (lung, plasma, heart, kidney) of co-solvent formulations, bolus intratracheal aerosol; assay type: in vivo, Sprague-Dawley rats; conditions: for concentration at 4 min / concentration at 0.1 h / concentration at 0.167 h / concentration at 0.333 h: Sprague-Dawley, rat, lung, other: intratracheal bolus aerosol (nebulizing catheter), 4 mg/kg, about 4 mg/kg pirfenidone IT bolus aerosol, read-out: Analyte in lung tissue, Mean; for concentration at 4 min: 0.0667 hr
Protocol: Selected formulations were prepared for pharmacokinetic analysis following aerosol delivery to rat lung. […] Formulations prepared for this study are outlined in Table 9. […] The sample was agitated until completely dissolved. […] Filtered samples were analyzed by HPLC.

[6] = Aqueous formulation observations: solubility, salt addition, taste, dissolution time; assay type: physicochemical
Protocol: However, at this (and lower) concentration it was determined that salt addition was required to improve acute tolerability upon inhalation of a nebulized solution (otherwise a hypotonic solution). To address tonicity, NaCl or MgCl2 were added. […] This effect was not observed at ˜pH 8.

[7] = system: proliferation of fibroblasts; LPS-stimulated release of PDGF, TNF-alpha and TGF-beta1; collagen synthesis; conditions: depending on the assay conditions; cited from earlier work
[8] = cited from earlier work; for oral Cmax / Cmax: IPF patients; for Cmax: read-out: oral Cmax
[9] = cited from earlier work
[10] = molecular target: T1, CYP1A2 (Homo sapiens, UniProt P05177); conditions: hepatic microsomes; cited from earlier work
T1 construct: In vitro metabolism studies with hepatic microsomes; from tissue; host or cells: hepatic microsomes

[11] = system: CYP2C9, 2C19, 2D6, and 2E1; conditions: hepatic microsomes; cited from earlier work
[12] = in vivo; cited from earlier work
[13] = Modeled human inhaled aerosol pirfenidone pharmacokinetics (FIG. 2, FIG. 5, Table 28)
Protocol: Aerosol deliver parameters for the FIGS. 2 and 5 models were based on high-efficiency, mesh-based nebulizer characterization (Table 12). […] Respirable delivered dose (RDD) calculated by the product of fine particle fraction (FPF, %<5 microns) and inhaled mass. […] This later dose was modeled to be delivered in 1 minute.

[14] = pirfenidone 27.2 mg/mL, 4% EtOH, 8% PG, 88% phosphate buffer (5 mM), pH 6.6
[15] = pirfenidone 34.7 mg/mL, 6% EtOH, 12% PG, 82% phosphate buffer (5 mM), pH 7.0
[16] = pirfenidone 43.7 mg/mL, 8% EtOH, 16% PG, 0 mM sodium saccharin, 76% phosphate buffer (5 mM), pH 7.0
[17] = pirfenidone 43.7 mg/mL, 8% EtOH, 16% PG, 0.3 mM sodium saccharin, 76% phosphate buffer (5 mM), pH 7.0
[18] = bolus aerosol intratracheal 1 mg/kg
[19] = bolus aerosol intratracheal 5 mg/kg

T1 sequence (P05177 whole entry): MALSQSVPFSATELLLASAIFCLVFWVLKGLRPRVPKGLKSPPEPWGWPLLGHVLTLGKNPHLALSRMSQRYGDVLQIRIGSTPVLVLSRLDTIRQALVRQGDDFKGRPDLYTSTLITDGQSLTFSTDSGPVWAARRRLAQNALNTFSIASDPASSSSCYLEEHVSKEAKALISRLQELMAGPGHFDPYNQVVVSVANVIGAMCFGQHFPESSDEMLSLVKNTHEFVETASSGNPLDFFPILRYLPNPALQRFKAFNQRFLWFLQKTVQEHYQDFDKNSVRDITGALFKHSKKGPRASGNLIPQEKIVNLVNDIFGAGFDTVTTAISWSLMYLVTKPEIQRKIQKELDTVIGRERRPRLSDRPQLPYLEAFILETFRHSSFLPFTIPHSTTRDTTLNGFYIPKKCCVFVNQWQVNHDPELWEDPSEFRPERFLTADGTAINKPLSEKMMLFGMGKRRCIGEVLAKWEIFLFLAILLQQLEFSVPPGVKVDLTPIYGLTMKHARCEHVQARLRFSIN

## Cc1ccc(=O)n(-c2ccccc2)c1 [pirfenidone, 5-methyl-1-phenyl-2-(1H)-pyridone]
[1]
  Pirfenidone Saturation Solubility: 18.4 mg/mL
[2]; [14]
  Cough Response?: No
  Throat Irritation?: No
[2]; [15]
  Cough Response?: No
  Throat Irritation?: No
[2]; [16]
  Cough Response?: No
  Throat Irritation?: No
  Osmolality: 3672 mOsmo/Kg
[2]; [17]
  Cough Response?: No
  Throat Irritation?: No
  Osmolality: 3672 mOsmo/Kg
[2]; pirfenidone 27.2 mg/mL, 4% EtOH, 8% PG, 88% phosphate buffer (5 mM), pH 6.6, calculated
  Osmolality: ~1830* mOsmo/Kg
[2]; pirfenidone 34.7 mg/mL, 6% EtOH, 12% PG, 82% phosphate buffer (5 mM), pH 7.0, calculated
  Osmolality: ~2750* mOsmo/Kg
[3]; 4° C., pirfenidone 23.0 mg/mL (85% saturation), 4% EtOH, 8% PG, 88% phosphate buffer (5 mM), pH 6.6
  Recrystallization upon storage: No
[3]; 4° C., pirfenidone 29.5 mg/mL, 6% EtOH, 12% PG, 82% phosphate buffer (5 mM), pH 7.0
  Recrystallization upon storage: No
[3]; 4° C., pirfenidone […], 8% EtOH, 16% PG, 76% phosphate buffer (5 mM), pH 7.0
  Recrystallization upon storage: No
[3]; 15° C., pirfenidone 23.0 mg/mL (85% saturation), 4% EtOH, 8% PG, 88% phosphate buffer (5 mM), pH 6.6
  Recrystallization upon storage: No
[3]; 15° C., pirfenidone 29.5 mg/mL, 6% EtOH, 12% PG, 82% phosphate buffer (5 mM), pH 7.0
  Recrystallization upon storage: No
[3]; 15° C., pirfenidone […], 8% EtOH, 16% PG, 76% phosphate buffer (5 mM), pH 7.0
  Recrystallization upon storage: No
[3]; 25° C., pirfenidone 23.0 mg/mL (85% saturation), 4% EtOH, 8% PG, 88% phosphate buffer (5 mM), pH 6.6
  Recrystallization upon storage: No
[3]; 25° C., pirfenidone 27.2 mg/mL (saturation solubility), 4% EtOH, 8% PG, 88% phosphate buffer (5 mM), pH 6.6
  Recrystallization upon storage: Yes
[3]; 25° C., pirfenidone 29.5 mg/mL, 6% EtOH, 12% PG, 82% phosphate buffer (5 mM), pH 7.0
  Recrystallization upon storage: No
[3]; 25° C., pirfenidone 34.7 mg/mL, 6% EtOH, 12% PG, 82% phosphate buffer (5 mM), pH 7.0
  Recrystallization upon storage: Yes
[3]; 25° C., pirfenidone 43.7 mg/mL, 8% EtOH, 16% PG, 76% phosphate buffer (5 mM), pH 7.0
  Recrystallization upon storage: Yes
[3]; 25° C., pirfenidone […], 8% EtOH, 16% PG, 76% phosphate buffer (5 mM), pH 7.0
  Recrystallization upon storage: No
[3]; −20° C., pirfenidone 23.0 mg/mL (85% saturation), 4% EtOH, 8% PG, 88% phosphate buffer (5 mM), pH 6.6, crystals re-dissolved at 25° C. without agitation
  Recrystallization upon storage: Yes^f
[3]; −20° C., pirfenidone 29.5 mg/mL, 6% EtOH, 12% PG, 82% phosphate buffer (5 mM), pH 7.0, crystals re-dissolved at 25° C. without agitation
  Recrystallization upon storage: Yes^f
[3]; −20° C., pirfenidone […], 8% EtOH, 16% PG, 76% phosphate buffer (5 mM), pH 7.0, crystals re-dissolved at 25° C. without agitation
  Recrystallization upon storage: Yes^f
[4]; [18]
  Lung TOE: time of exposure over 1 μg/g lung tissue: 5 min
  Lung AUC: 5.2 mg·h/kg
[4]; bolus aerosol intratracheal 1 mg/kg, immediate post-dose calculated from the direct-lung delivered dose
  Lung Cmax: 101 µg/g
[4]; [19]
  Lung TOE: time of exposure over 1 μg/g lung tissue: 84 min
  Lung AUC: 25.4 mg·h/kg
[4]; bolus aerosol intratracheal 5 mg/kg, immediate post-dose calculated from the direct-lung delivered dose
  Lung Cmax: 508 µg/g
[4]; oral 70 mg/kg
  Lung AUC: 4.3 mg·h/kg
  Lung Cmax: 3.6 µg/g
  Lung TOE: time of exposure over 1 μg/g lung tissue: 89 min
[5]; Group 1
  concentration at 4 min: 10400 ng/g
  concentration at 0.1 h: 7530 ng/g
  concentration at 0.167 h: 5360 ng/g
  concentration at 0.333 h: 4150 ng/g
[5]; Group 2
  concentration at 4 min: 8530 ng/g
  concentration at 0.1 h: 5980 ng/g
  concentration at 0.167 h: 5710 ng/g
  concentration at 0.333 h: 3790 ng/g
[5]; Group 3
  concentration at 4 min: 17300 ng/g
  concentration at 0.1 h: 7340 ng/g
  concentration at 0.167 h: 6160 ng/g
[5]; Group 4
  concentration at 4 min: 7770 ng/g
  concentration at 0.1 h: 7500 ng/g
  concentration at 0.167 h: 5230 ng/g
[5]; Group 5
  concentration at 4 min: 10700 ng/g
  concentration at 0.1 h: 5830 ng/g
  concentration at 0.167 h: 8780 ng/g
[5]; Group 6
  concentration at 4 min: 7930 ng/g
  concentration at 0.1 h: 6830 ng/g
  concentration at 0.167 h: 5170 ng/g
[5]; about 4 mg/kg intratracheal aerosol, co-solvent formulations
  adverse events: No adverse events were noted
[6]; MgCl2 added, 1:1 and 1:2 mole ratios magnesium to pirfenidone
  formulation stability on addition of MgCl2: maintained a stable, soluble solution
[6]; NaCl added to address tonicity, ambient storage
  formulation stability on addition of NaCl: destabilized the formulation and resulted in precipitation upon ambient storage
[6]; addition of NaCl
  acute tolerability upon inhalation of a nebulized solution: improved acute tolerability
[6]; aqueous solution, aqueous buffer, across a pH range of about 4.0 to about 8.0
  solubility: 17 mg/mL
[7]
  lower end of concentrations at which in vitro activities were evident: about 30 microM; also recorded: about 5.5 mcg/mL
  upper end of concentrations at which in vitro activities were evident: about 10 mM; also recorded: about 1.85 mg/mL
[8]; 801 mg oral pirfenidone
  duration of plasma level at or greater than 5 mcg/mL: 4 h
[8]; fasting-state
  oral Cmax: about 15.7 mcg/mL
  Cmax: ~84 µM
[8]; recommended fed-state
  oral Cmax: about 7.9 mcg/mL
  Cmax: ~42 µM
[8]; oral, fed-state
  change in Tmax by food: seven-fold increase
  reduction in Cmax by food: ~50%
  reduction in overall exposure (AUC) by food: 10-15% and ~20%
[9]; 40 mg/kg intravenous dose
  Lung Cmax: 30 mcg/gram wet tissue
  plasma Cmax: about 55 mcg/mL
[9]; intravenous
  wet lung half-life, longer than the plasma half-life: about 45%
[10]
  share of pirfenidone metabolised via the enzyme: approximately 48%
[11]
  contribution of each isoenzyme to metabolism: less than 13%
[12]
  administered dose excreted in the urine: about 80%
[13]; 2.5 mg RDD inhaled over 1 minute, human model
  lung tissue Cmax compared to the 801 mg oral pirfenidone dose: equivalent
[13]; 29 mg RDD, 3 minute tidal-inhaled nebulized dose
  possible achieved human lung tissue Cmax: 43.2 mcg/gram lung tissue
[13]; 120 mg RDD inhaled over 5 minutes, human model
  plasma AUC compared to the 801 mg oral pirfenidone dose: equivalent
